Results taken from patent US11883821B2, “Fluidic device for the detection, capture, or removal of a disease material” (Vanderbilt University, priority 2016, dated 2024).

Columns and labels:
red blood cell = format: cell-based, human
Experimental: This process was repeated for the PEGylated device. Red blood cell lysis was then analyzed to determine release of free hemoglobin in plasma. Plasma hemoglobin was measured by according to well-established protocols. Following passage through the device, the blood samples were centrifuged (500×g) and the supernatant was spectrophotometrically analyzed for hemoglobin release using a plate-reader (Tecan, Infinite M1000 Pro) at 451 nm in order to determine percent hemolysis relative to the Triton-X positive control. Triton X-100 (Sigma-Aldrich) was diluted in diH2O to result in a 20 v/v % Triton-X detergent concentration, which served as the positive control. The negative control used was EDTA-anticoagulated whole, human blood that was not flowed through a double spiral microfluidic device (i.e. untreated). Percent of hemoglobin release was calculated according to the following equation: Hemoglobin release (%)=[(Sample451nm−Negative control451nm=)/(Positive control451nm−Negative control451nm)]×100%. Complete blood counts of each sample (i.e. untreated, colistinated device, PEGylated device) were performed by the Vanderbilt University Translational Pathology Shared Resource Core.

[1] = system: Acinetobacter baumannii 'Patient 2'; test: Colistin MIC by standard agar dilution; format: cell-based; settings: colistin-resistant isolate
Experimental: Bacterial cultures (i.e., Acinetobacter baumannii ATCC17978, Colistin-resistant Acinetobacter baumannii 19606R^41. Colistin-resistant Acinetobacter baumannii-Patient 2′. Klebsiella pneumoniae ATCC700603. Bacillus subtilis 1A578 (Bacillus Genetic Stock Center), Staphylococcus aureus ATCC29213) were plated on LB agar (Sigma-Aldrich, Lot #SLBR1403V) and grown overnight at 37° C. Single colonies of each strain were then inoculated in LB broth (IX) (Gibco, Lot #1803272) and grown at 37° C. for 18 hours shaking at 150 rpm. Cell concentrations were measured with OD595 spectrometry (Infinite F500. Tecan).
Colistin minimum inhibitory concentrations (MIC) of bacterial strains were confirmed by standard agar dilution methods. Results were interpreted according to the Clinical and Laboratory Standards Institute susceptibility breakpoints.

“Triton X-100 [Positive control (20 v/v % Triton-X)]” was tested. Which “Hemolysis (%)” value (red blood cell) did it give?
The value was 100% ± 3.08%.

For Colistin, which “Colistin MIC” value [1] is on record?
Its value is >256 µg/mL.
